Experiments:
Experiment in all cases: ITC reverse titration of protein into compound
Type in all cases: binding
Brd2(2) Leu383-Ile = Brd2(2) Leu383-Ile (Homo sapiens, UniProt P25440, L383I); parameters: Plasmids of the eight single BET bromodomain constructs Brd2(1), Brd2(2), Brd3(1), Brd3(2), Brd4(1), Brd4(2), Brdt(1) and Brdt(2); His6 (N); made in house; host or cells: E. coli BL21(DE3)
Description: (§1) ITC experiments were carried out on a ITC200 instrument from MicroCal™ Experiments were conducted at 3 different temperatures 15° C., 25° C. and 30° C., while stirring at 1000 rpm. Buffers of proteins, peptide and compounds were matched to 20 mM HEPES pH 7.5 at 25° C. and 100 mM NaCl. Frozen protein was buffer exchanged as described for the DSF experiments. Each titration comprised 1 initial injection of 0.4 μl lasting 0.8 s, followed by 19 injections of 2 μl lasting 4 s each at 2 min intervals. The initial injection was discarded during data analysis. Standard and reverse titrations were conducted depending on the binding partners.
(§2) Reverse titrations were conducted to test the binding of the known ligands and the novel chemical probes to the wild types and the mutants. Experiments were carried out either at 25° C. or 30° C. For strong binders, a concentration of 150-200 μM of the protein was injected into a solution of 15-20 μM compound. […] In cases where the compound was solubilized in dimethyl sulfoxide, DMSO concentration was adjusted to 1% both in the syringe and in the cell.
(§3) All the data was fitted to a single binding site model using the Microcal LLC ITC200 Origin software provided by the manufacturer to yield enthalpies of binding (ΔH) and binding constants (Kas). Further thermodynamic parameters were calculated from these values (changes in entropy ΔS, changes in free energy AG and dissociation constants (Kds)).

Brd2(1) Leu110-Ile = Brd2(1) Leu110-Ile (Homo sapiens, UniProt P25440, L110I); parameters: Plasmids of the eight single BET bromodomain constructs Brd2(1), Brd2(2), Brd3(1), Brd3(2), Brd4(1), Brd4(2), Brdt(1) and Brdt(2); His6 (N); made in house; host or cells: E. coli BL21(DE3)
Sequence of Brd2(1) Leu110-Ile (P25440 74-180 L110I limits assumed): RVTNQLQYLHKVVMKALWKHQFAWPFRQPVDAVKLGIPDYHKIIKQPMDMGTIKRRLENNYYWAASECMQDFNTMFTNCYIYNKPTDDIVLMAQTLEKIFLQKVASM
Description: as §1, §2, §3

brd3(2)L344A = molecular target: T1, brd3(2)L344A (Homo sapiens, UniProt Q15059, L345A); settings: 30° C.
T1 construct: Plasmids of the eight single BET bromodomain constructs Brd2(1), Brd2(2), Brd3(1), Brd3(2), Brd4(1), Brd4(2), Brdt(1) and Brdt(2); His6 (N); made in house; host or cells: E. coli BL21(DE3)
T1 sequence (Q15059 306-415 L345A): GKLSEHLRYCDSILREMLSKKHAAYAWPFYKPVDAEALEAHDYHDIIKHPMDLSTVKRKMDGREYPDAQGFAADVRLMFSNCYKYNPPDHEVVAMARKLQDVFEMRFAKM
Description: (§4) Results obtained were very promising, showing small shifts from 1.2° C. to a maximum of 2.6° C. for all the eight BET wild types and shifts from 5.4° C. to 13.4° C. for all the leucine to alanine mutants.
(§5) For all mutants, protein was titrated at a concentration between 150-200 μM into a solution of the compound at a concentration of 15-20 μM. In the case of the wild types, protein was titrated at a concentration of 350-400 μM into a solution of the compound between 15-20 μM. FIG. 11 is an illustrative example of the curves obtained for the Brd3(1) bromodomain construct and its respective leucine to alanine mutant titrated into compound 11. We can easily observe a hyperbolic shape for the titration of wild type Brd3(1) into compound 11, corresponding to a low affinity interaction, while for Brd3(1)*(Leu070-Ala) we can easily observe a sharp sigmoidal behaviour corresponding to a high affinity interaction. Furthermore, there is a clear difference in the ΔH produced by each interaction. (ΔH=−22 kcal/mol vs. mutant compared to −7 kcal/mol vs. wild type).
as §1, §2, §3

brd4(2)L387A = molecular target: T2, brd4(2)L387A (Homo sapiens, UniProt O60885, L387A); settings: 30° C.
T2 construct: Plasmids of the eight single BET bromodomain constructs Brd2(1), Brd2(2), Brd3(1), Brd3(2), Brd4(1), Brd4(2), Brdt(1) and Brdt(2); His6 (N); made in house; host or cells: E. coli BL21(DE3)
Description: as §4, §5, §1, §2, §3

Brd3(1)*(Leu070-Ala) = molecular target: T3, Brd3(1)*(Leu070-Ala) (Homo sapiens, UniProt Q15059, L70A); settings: for Selectivity factor Kd WT/Kd Leu/Ala: 30° C.
T3 construct: Plasmids of the eight single BET bromodomain constructs Brd2(1), Brd2(2), Brd3(1), Brd3(2), Brd4(1), Brd4(2), Brdt(1) and Brdt(2); His6 (N); made in house; host or cells: E. coli BL21(DE3)
T3 sequence (Q15059 34-140 L70A): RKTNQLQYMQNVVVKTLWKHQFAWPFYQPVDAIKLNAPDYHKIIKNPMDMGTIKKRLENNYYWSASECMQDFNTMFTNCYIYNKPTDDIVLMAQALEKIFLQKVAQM
Description: as §4, §5, §1, §2, §3

brdt(1)L063A = molecular target: T4, brdt(1)L063A (Homo sapiens, UniProt Q58F21, L63A); settings: 30° C.
T4 construct: Plasmids of the eight single BET bromodomain constructs Brd2(1), Brd2(2), Brd3(1), Brd3(2), Brd4(1), Brd4(2), Brdt(1) and Brdt(2); His6 (N); made in house; host or cells: E. coli BL21(DE3)
Description: as §4, §5, §1, §2, §3

brd4(1)L094A = molecular target: T5, brd4(1)L094A (Homo sapiens, UniProt O60885, L94A); settings: 30° C.
T5 construct: Plasmids of the eight single BET bromodomain constructs Brd2(1), Brd2(2), Brd3(1), Brd3(2), Brd4(1), Brd4(2), Brdt(1) and Brdt(2); His6 (N); made in house; host or cells: E. coli BL21(DE3)
Description: as §4, §5, §1, §2, §3

brdt(2)L306A = molecular target: T6, brdt(2)L306A (Homo sapiens, UniProt Q58F21, L306A); settings: 30° C.
T6 construct: Plasmids of the eight single BET bromodomain constructs Brd2(1), Brd2(2), Brd3(1), Brd3(2), Brd4(1), Brd4(2), Brdt(1) and Brdt(2); His6 (N); made in house; host or cells: E. coli BL21(DE3)
Description: as §4, §5, §1, §2, §3

Sequence of Brd2(2) Leu383-Ile (P25440 344-453 L383I limits assumed): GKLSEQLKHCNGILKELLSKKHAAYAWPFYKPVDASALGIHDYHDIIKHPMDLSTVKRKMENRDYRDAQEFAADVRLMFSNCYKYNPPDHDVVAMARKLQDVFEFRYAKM

## COC(=O)[C@H](C)[C@@H]1N=C(c2ccc(Cl)cc2)c2cc(OC)ccc2-n2c(C)nnc21 (racemic) [Compound 7, (+−)-methyl (R)-2-((S)-6-(4-chlorophenyl)-8-methoxy-1-methyl-4H-benzo[f][1,2,4]triazolo[4,3-a][1,4]diazepin-4-yl)propanoate]
Brd2(2) Leu383-Ile
  Kd: 27 nM
Brd2(1) Leu110-Ile
  Kd: 260 nM

## CC[C@@H](C(=O)OC)[C@@H]1N=C(c2ccc(Cl)cc2)c2cc(OC)ccc2-n2c(C)nnc21 (racemic) [Compound 11, (+−)-methyl (R)-2-((S)-6-(4-chlorophenyl)-8-methoxy-1-methyl-4H-benzo[f][1,2,4]triazolo[4,3-a][1,4]diazepin-4-yl)butanoate]
brd3(2)L344A; brd3(2)L344A vs WT brd2(1)
  Selectivity factor Kd WT/Kd Leu/Ala: 135
brd3(2)L344A; brd3(2)L344A vs WT brd2(2)
  Selectivity factor Kd WT/Kd Leu/Ala: 261
brd3(2)L344A; brd3(2)L344A vs WT brd3(1)
  Selectivity factor Kd WT/Kd Leu/Ala: 106
brd3(2)L344A; brd3(2)L344A vs WT brd3(2)
  Selectivity factor Kd WT/Kd Leu/Ala: 112
brd3(2)L344A; brd3(2)L344A vs WT brd4(1)
  Selectivity factor Kd WT/Kd Leu/Ala: 192
brd3(2)L344A; brd3(2)L344A vs WT brd4(2)
  Selectivity factor Kd WT/Kd Leu/Ala: 152
brd3(2)L344A; brd3(2)L344A vs WT brdt(1)
  Selectivity factor Kd WT/Kd Leu/Ala: 130
brd3(2)L344A; brd3(2)L344A vs WT brdt(2)
  Selectivity factor Kd WT/Kd Leu/Ala: 185
brd4(2)L387A; brd4(2)L387A vs WT brd2(1)
  Selectivity factor Kd WT/Kd Leu/Ala: 45
brd4(2)L387A; brd4(2)L387A vs WT brd2(2)
  Selectivity factor Kd WT/Kd Leu/Ala: 88
brd4(2)L387A; brd4(2)L387A vs WT brd3(2)
  Selectivity factor Kd WT/Kd Leu/Ala: 38
brd4(2)L387A; brd4(2)L387A vs WT brd4(1)
  Selectivity factor Kd WT/Kd Leu/Ala: 65
brd4(2)L387A; brd4(2)L387A vs WT brd4(2)
  Selectivity factor Kd WT/Kd Leu/Ala: 51
brd4(2)L387A; brd4(2)L387A vs WT brdt(1)
  Selectivity factor Kd WT/Kd Leu/Ala: 44
brd4(2)L387A; brd4(2)L387A vs WT brdt(2)
  Selectivity factor Kd WT/Kd Leu/Ala: 62
Brd3(1)*(Leu070-Ala); ITC 30° C., 1% DMSO
  ΔH Brd3(1)*(Leu070-Ala): -22 kcal/mol
Brd3(1)*(Leu070-Ala); brd3(1)L070A vs WT brd2(1)
  Selectivity factor Kd WT/Kd Leu/Ala: 244
Brd3(1)*(Leu070-Ala); brd3(1)L070A vs WT brd2(2)
  Selectivity factor Kd WT/Kd Leu/Ala: 469
Brd3(1)*(Leu070-Ala); brd3(1)L070A vs WT brd3(1)
  Selectivity factor Kd WT/Kd Leu/Ala: 190
Brd3(1)*(Leu070-Ala); brd3(1)L070A vs WT brd3(2)
  Selectivity factor Kd WT/Kd Leu/Ala: 202
Brd3(1)*(Leu070-Ala); brd3(1)L070A vs WT brd4(1)
  Selectivity factor Kd WT/Kd Leu/Ala: 346
Brd3(1)*(Leu070-Ala); brd3(1)L070A vs WT brd4(2)
  Selectivity factor Kd WT/Kd Leu/Ala: 273
Brd3(1)*(Leu070-Ala); brd3(1)L070A vs WT brdt(1)
  Selectivity factor Kd WT/Kd Leu/Ala: 233
Brd3(1)*(Leu070-Ala); brd3(1)L070A vs WT brdt(2)
  Selectivity factor Kd WT/Kd Leu/Ala: 332
brdt(1)L063A; brdt(1)L063A vs WT brd2(1)
  Selectivity factor Kd WT/Kd Leu/Ala: 48
brdt(1)L063A; brdt(1)L063A vs WT brd2(2)
  Selectivity factor Kd WT/Kd Leu/Ala: 92
brdt(1)L063A; brdt(1)L063A vs WT brd3(1)
  Selectivity factor Kd WT/Kd Leu/Ala: 37
brdt(1)L063A; brdt(1)L063A vs WT brd3(2)
  Selectivity factor Kd WT/Kd Leu/Ala: 40
brdt(1)L063A; brdt(1)L063A vs WT brd4(1)
  Selectivity factor Kd WT/Kd Leu/Ala: 67
brdt(1)L063A; brdt(1)L063A vs WT brd4(2)
  Selectivity factor Kd WT/Kd Leu/Ala: 54
brdt(1)L063A; brdt(1)L063A vs WT brdt(1)
  Selectivity factor Kd WT/Kd Leu/Ala: 46
brdt(1)L063A; brdt(1)L063A vs WT brdt(2)
  Selectivity factor Kd WT/Kd Leu/Ala: 65
brd4(1)L094A; brd4(1)L094A vs WT brd2(1)
  Selectivity factor Kd WT/Kd Leu/Ala: 206
brd4(1)L094A; brd4(1)L094A vs WT brd2(2)
  Selectivity factor Kd WT/Kd Leu/Ala: 396
brd4(1)L094A; brd4(1)L094A vs WT brd3(1)
  Selectivity factor Kd WT/Kd Leu/Ala: 160
brd4(1)L094A; brd4(1)L094A vs WT brd3(2)
  Selectivity factor Kd WT/Kd Leu/Ala: 170
brd4(1)L094A; brd4(1)L094A vs WT brd4(1)
  Selectivity factor Kd WT/Kd Leu/Ala: 292
brd4(1)L094A; brd4(1)L094A vs WT brd4(2)
  Selectivity factor Kd WT/Kd Leu/Ala: 231
brd4(1)L094A; brd4(1)L094A vs WT brdt(1)
  Selectivity factor Kd WT/Kd Leu/Ala: 197
brd4(1)L094A; brd4(1)L094A vs WT brdt(2)
  Selectivity factor Kd WT/Kd Leu/Ala: 281
brdt(2)L306A; brdt(2)L306A vs WT brd2(1)
  Selectivity factor Kd WT/Kd Leu/Ala: 63
brdt(2)L306A; brdt(2)L306A vs WT brd2(2)
  Selectivity factor Kd WT/Kd Leu/Ala: 122
brdt(2)L306A; brdt(2)L306A vs WT brd3(1)
  Selectivity factor Kd WT/Kd Leu/Ala: 49
brdt(2)L306A; brdt(2)L306A vs WT brd3(2)
  Selectivity factor Kd WT/Kd Leu/Ala: 52
brdt(2)L306A; brdt(2)L306A vs WT brd4(1)
  Selectivity factor Kd WT/Kd Leu/Ala: 90
brdt(2)L306A; brdt(2)L306A vs WT brd4(2)
  Selectivity factor Kd WT/Kd Leu/Ala: 71
brdt(2)L306A; brdt(2)L306A vs WT brdt(1)
  Selectivity factor Kd WT/Kd Leu/Ala: 60
brdt(2)L306A; brdt(2)L306A vs WT brdt(2)
  Selectivity factor Kd WT/Kd Leu/Ala: 86

Source: patent US20170122958A1, “Enzymes Functional Probes” (University of Dundee, priority 2013, published 2017)
